Results published in patent publication US8106055B2, “Substituted amide compounds” (Gruenenthal GmbH, priority 2007, dated 2012).
Like-named read-outs stand apart in the source and are kept apart here.

Key:
human μ opiate receptor = target: T1, human μ opiate receptor (Homo sapiens, UniProt P35372); test: Affinity for the human μ opiate receptor ([3H]-naloxone displacement, CHO-K1 receptor membrane preparation, SPA); type: binding
T1 construct: purchased PerkinElmer Life Sciences, Zaventem, Belgium RB-HOM; host or cells: CHO-K1 cells (membrane preparation)
Outline: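 Membranes from CHO-K1 cells expressing the human μ opiate receptor (15-40 μg protein per well) were incubated with test compound, 1 nmol/l [3H]-naloxone and WGA-SPA beads in 50 mmol/l Tris-HCl with 0.06% BSA for 90 minutes at room temperature. Values are % inhibition of specific binding at 1 μmol/l.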

[1] = target: T2, human bradykinin 1 receptor (B1R) (Homo sapiens, UniProt P46663); test: Functional investigation on the human bradykinin 1 receptor (B1R), Ca2+ FLIPR assay in CHO K1 hB1R cells; type: cell-based; details: for B1R Ant. h [10 μM] % Inhibition: B1R antagonism human
T2 construct: expressed in transfected cells; host or cells: CHO K1 cells
T2 sequence (P46663 1-353): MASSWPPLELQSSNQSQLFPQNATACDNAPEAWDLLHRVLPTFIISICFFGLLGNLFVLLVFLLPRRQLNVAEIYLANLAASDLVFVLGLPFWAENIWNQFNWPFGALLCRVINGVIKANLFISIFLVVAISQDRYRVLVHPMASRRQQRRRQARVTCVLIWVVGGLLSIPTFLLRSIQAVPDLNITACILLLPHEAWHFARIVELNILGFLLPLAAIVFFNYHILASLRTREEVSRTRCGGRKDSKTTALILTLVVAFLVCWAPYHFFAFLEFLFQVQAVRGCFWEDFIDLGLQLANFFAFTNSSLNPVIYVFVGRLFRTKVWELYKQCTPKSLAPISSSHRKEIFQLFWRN
Outline: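 Cells were dye-loaded with Fluo-4 plus probenecid, then test substances added and Ca2+ influx compared with agonist control for % activation. After 10-20 min, EC80 agonist (Lys-Des-Arg9-bradykinin human; Des-Arg9-bradykinin rat) was applied; suppression gave % inhibition and IC50 values.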

[2] = target: T3, serotonin (5-HT) reuptake (Rattus norvegicus, UniProt P31652); test: Inhibition of serotonin (5HT) reuptake in synaptosomes from rat brain; type: biochemical
T3 construct: synaptosomes are freshly isolated from areas of the rat brain; from tissue; host or cells: rat brain synaptosomes (P2 fraction)
Description: Binding data of the compounds on the μ opioid receptor and data on the inhibition of reuptake of serotonin (5-HT) are given in Table 1. The data for the μ receptor were measured at a test concentration of 1 μM, and those for the serotonin reuptake at 10 μM. The values are stated in % inhibition.
Inhibition of Serotonin (5HT) Reuptake
In order to be able to carry out these in vitro studies, synaptosomes are freshly isolated from areas of the rat brain. In each case a so-called “P2” fraction prepared in accordance with the instructions of Gray and Whittaker (E. G. Gray and V. P. Whittaker (1962) J. Anat. 76, 79-88) is prepared. For the NA uptake, these vesicular particles are isolated from the hypothalamus of male rat brains.
A detailed description of the method can be found in the literature (M. Ch. Frink, H.-H. Hennies, W. Englberger, M. Haurand and B. Wilffert (1996) Arzneim.-Forsch./Drug Res. 46 (III), 11, 1029-1036).

[3] = test substance 10 μM, Ca2+ FLIPR, CHO K1 hB1R cells
[4] = test concentration of 1 μM, read-out: μ (binding on the μ opioid receptor, % inhibition)
[5] = CHO-K1, B1R antagonism human, test substance 10 μM, Ca2+ FLIPR, CHO K1 hB1R cells, read-out: B1R Ant. h [10 μM] % Inhibition
[6] = test concentration of 10 μM, read-out: 5-HT (inhibition of reuptake of serotonin, % inhibition)
[7] = 1.5 h, Table 2, test concentration 1 μM, read-out: μ receptor
[8] = Table 2, test concentration 10 μM, read-out: 5-HT reuptake

T1 sequence (P35372 whole entry): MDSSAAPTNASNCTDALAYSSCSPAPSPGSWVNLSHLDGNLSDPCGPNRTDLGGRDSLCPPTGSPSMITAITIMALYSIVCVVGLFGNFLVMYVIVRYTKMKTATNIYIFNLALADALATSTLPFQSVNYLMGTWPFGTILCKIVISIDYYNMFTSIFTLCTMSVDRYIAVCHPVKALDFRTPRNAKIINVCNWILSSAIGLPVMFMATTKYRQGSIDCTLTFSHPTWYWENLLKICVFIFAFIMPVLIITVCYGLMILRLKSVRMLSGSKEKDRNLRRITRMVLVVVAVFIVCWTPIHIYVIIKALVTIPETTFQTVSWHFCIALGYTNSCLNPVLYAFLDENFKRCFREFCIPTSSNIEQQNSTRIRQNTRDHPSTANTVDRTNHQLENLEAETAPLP
T3 sequence (P31652 whole entry): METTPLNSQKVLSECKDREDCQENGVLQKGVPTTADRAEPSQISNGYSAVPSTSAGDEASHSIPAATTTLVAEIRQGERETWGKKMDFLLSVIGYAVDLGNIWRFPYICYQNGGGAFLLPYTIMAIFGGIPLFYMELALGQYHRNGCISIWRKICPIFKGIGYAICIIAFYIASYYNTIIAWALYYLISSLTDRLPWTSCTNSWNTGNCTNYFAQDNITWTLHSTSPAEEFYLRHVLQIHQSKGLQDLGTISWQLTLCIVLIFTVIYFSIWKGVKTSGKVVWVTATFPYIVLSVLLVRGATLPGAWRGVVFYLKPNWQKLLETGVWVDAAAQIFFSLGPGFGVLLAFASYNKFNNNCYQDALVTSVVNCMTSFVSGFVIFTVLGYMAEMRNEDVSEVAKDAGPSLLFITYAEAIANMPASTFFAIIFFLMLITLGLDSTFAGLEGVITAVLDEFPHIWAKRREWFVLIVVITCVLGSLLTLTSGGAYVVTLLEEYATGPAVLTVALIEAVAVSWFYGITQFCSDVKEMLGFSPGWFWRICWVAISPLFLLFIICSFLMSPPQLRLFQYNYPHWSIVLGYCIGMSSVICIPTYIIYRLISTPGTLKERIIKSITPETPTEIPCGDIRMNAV

## Cc1cc(C)c(S(=O)(=O)N(C)CCOCC(=O)NCCC2CCC(C(c3cccs3)N(C)C)CC2)c(C)c1 (stereo not drawn) [Example 385]
Human μ opiate receptor; test concentration of 1 μM
  μ (binding on the μ opioid receptor, % inhibition): 59%
[1]; [3]
  B1R Ant. h [10 μM] % Inhibition: 15%
[2]; test concentration of 10 μM
  5-HT (inhibition of reuptake of serotonin, % inhibition): 93%

## CN(C)C(c1ccccc1)C1CCC(NC(=O)COc2ccccc2N(C)S(=O)(=O)c2ccc(Cl)c(Cl)c2)CC1 (stereo not drawn) [Example 166, 2-(2-(3,4-dichloro-N-methylphenylsulfonamido)phenoxy)-N-(4-((dimethylamino)(phenyl)methyl)cyclohexyl)acetamide]
Human μ opiate receptor; [4]
  inhibition at 1 µM: 87%
[1]; [5]
  inhibition at 10 µM: 74%
[2]; [6]
  inhibition at 10 µM: 91%

## CN(C)C(c1ccccc1)C1CCC(NC(=O)COC2CCCN(S(=O)(=O)c3ccccc3)C2)CC1 (stereo not drawn) [Example 109, N-(4-((dimethylamino)(phenyl)methyl)cyclohexyl)-2-(1-(phenylsulfonyl)piperidin-3-yloxy)acetamide]
Human μ opiate receptor; [4]
  inhibition at 1 µM: 89%
[1]; [5]
  inhibition at 10 µM: 26%
[2]; [6]
  inhibition at 10 µM: 87%

## COc1cc(C)c(S(=O)(=O)N(C)CCOCC(=O)NC2CCC(C(c3ccc(F)cc3)N(C)C)CC2)c(C)c1C (stereo not drawn) [Example 380]
Human μ opiate receptor; test concentration of 1 μM
  μ (binding on the μ opioid receptor, % inhibition): 55%
[1]; [3]
  B1R Ant. h [10 μM] % Inhibition: 86%
[2]; test concentration of 10 μM
  5-HT (inhibition of reuptake of serotonin, % inhibition): 81%

## CN(C)C(c1ccccc1)C1CCC(NC(=O)COCCN(C2CC2)S(=O)(=O)c2c(Cl)cc(Cl)cc2Cl)CC1 (stereo not drawn) [Example 600, 2-{2-[cyclopropyl-(2,4,6-trichlorobenzenesulfonyl)-amino]-ethoxy}-N-[4-(dimethylaminophenylmethyl)-cyclohexyl]-acetamide]
Human μ opiate receptor; [7]
  inhibition at 1 µM: 95%
[1]; [5]
  inhibition at 10 µM: 101%
[2]; [8]
  inhibition at 10 µM: 60%

## CN(C)C(c1ccccc1)C1CCC(NC(=O)COCc2c(N(C)S(=O)(=O)c3ccc(Cl)c(Cl)c3)sc3c2CCCC3)CC1 (stereo not drawn) [Example 369]
Human μ opiate receptor; test concentration of 1 μM
  μ (binding on the μ opioid receptor, % inhibition): 66%
[1]; [3]
  B1R Ant. h [10 μM] % Inhibition: 21%
[2]; test concentration of 10 μM
  5-HT (inhibition of reuptake of serotonin, % inhibition): 66%

## CN(Cc1ccccc1)C(c1ccccc1)C1CCC(NC(=O)COCCN(C)S(=O)(=O)c2c(Cl)cc(Cl)cc2Cl)CC1 (stereo not drawn) [Example 599, N-{4-[(benzylmethylamino)-phenylmethyl]-cyclohexyl}-2-{2-[methyl-(2,4,6-trichlorobenzenesulfonyl)-amino]-ethoxy}-acetamide]
Human μ opiate receptor; [7]
  inhibition at 1 µM: 91%
[1]; [5]
  inhibition at 10 µM: -6%
[2]; [8]
  inhibition at 10 µM: 33%

## CN(C)C(c1cccs1)C1CCC(CCNC(=O)COCCN(C)S(=O)(=O)c2c(F)c(F)c(F)c(F)c2F)CC1 (stereo not drawn) [Example 465]
Human μ opiate receptor; test concentration of 1 μM
  μ (binding on the μ opioid receptor, % inhibition): 48%
[1]; [3]
  B1R Ant. h [10 μM] % Inhibition: −3%
[2]; test concentration of 10 μM
  5-HT (inhibition of reuptake of serotonin, % inhibition): 72%

## CN(C)C(c1ccccc1)C1CCC(NC(=O)COCCN(Cc2ccccc2)S(=O)(=O)c2ccccc2)CC1 (stereo not drawn) [Example 51, 2-(2-(N-benzylphenylsulfonamido)ethoxy)-N-(4-((dimethylamino)(phenyl)methyl)cyclohexyl)acetamide]
Human μ opiate receptor; [4]
  inhibition at 1 µM: 95%
[1]; CHO-K1, read-out: B1R Ant. h [10 μM] % Inhibition
  inhibition at 10 µM: 9%
[2]; [6]
  inhibition at 10 µM: 88%

## CN(C)C(c1ccccc1)C1CCC(NC(=O)COC2CCN(S(=O)(=O)c3ccccc3)CC2)CC1 (stereo not drawn) [Example 257]
Human μ opiate receptor; test concentration of 1 μM
  μ (binding on the μ opioid receptor, % inhibition): 74%
[1]; [3]
  B1R Ant. h [10 μM] % Inhibition: 26%
[2]; test concentration of 10 μM
  5-HT (inhibition of reuptake of serotonin, % inhibition): 86%

## COc1ccc(S(=O)(=O)N2CCCCC2COCC(=O)NC2CCC(C(c3ccccc3)N(C)C)CC2)cc1OC (stereo not drawn) [Example 198, 2-((1-(3,4-dimethoxyphenylsulfonyl)piperidin-2-yl)methoxy)-N-(4-((dimethylamino)(phenyl)methyl)cyclohexyl)acetamide]
Human μ opiate receptor; [4]
  inhibition at 1 µM: 78%
[1]; [5]
  inhibition at 10 µM: -12%
[2]; [6]
  inhibition at 10 µM: 88%
